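Interpolation was linear, between the two tested concentrations surrounding the appropriate level; five concentrations were tested over 48 hours in 96-well plates. TGI: concentration producing complete growth inhibition.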
What was measured:
Assay in all cases: growth of human tumour cells (NCI), 48 h
SF-295 CNS = tested on: SF-295 CNS
U251 CNS = tested on: U251 CNS
DLD-1 colon = tested on: DLD-1 colon
HOP-92 NSCLC = tested on: HOP-92 NSCLC
DMS 114 small cell lung = tested on: DMS 114 small cell lung
HOP-62 NSCLC = tested on: HOP-62 NSCLC
OVCAR-4 ovarian = tested on: OVCAR-4 ovarian
LXFL 529 NSCLC = tested on: LXFL 529 NSCLC
OVCAR-5 ovarian = tested on: OVCAR-5 ovarian
SK-MEL-2 melanoma = tested on: SK-MEL-2 melanoma
SF-539 CNS = tested on: SF-539 CNS
HCT-15 colon = tested on: HCT-15 colon
KM20L2 colon = tested on: KM20L2 colon
SNB-75 CNS = tested on: SNB-75 CNS
SK-OV-3 ovarian = tested on: SK-OV-3 ovarian
IGROV1 ovarian = tested on: IGROV1 ovarian
A549 NSCLC = tested on: A549 NSCLC
MALME-3M melanoma = tested on: MALME-3M melanoma
M19-MEL melanoma = tested on: M19-MEL melanoma
NCI-H460 lung = tested on: NCI-H460 lung
UACC-257 melanoma = tested on: UACC-257 melanoma
SK-MEL-5 melanoma = tested on: SK-MEL-5 melanoma
HCC-2998 colon = tested on: HCC-2998 colon
M14 melanoma = tested on: M14 melanoma
HCT-116 colon = tested on: HCT-116 colon
OVCAR-3 ovarian = tested on: OVCAR-3 ovarian
TK-10 renal = tested on: TK-10 renal
KM12 colon = tested on: KM12 colon
HOP-18 NSCLC = tested on: HOP-18 NSCLC
SNB-78 CNS = tested on: SNB-78 CNS
RXF 393 renal = tested on: RXF 393 renal
SF-268 CNS = tested on: SF-268 CNS
RPMI-8226 leukemia = tested on: RPMI-8226 leukemia
UACC-62 melanoma = tested on: UACC-62 melanoma
786-0 renal = tested on: 786-0 renal
CAKI-1 renal = tested on: CAKI-1 renal
MOLT-4 leukemia = tested on: MOLT-4 leukemia
HT29 colon = tested on: HT29 colon
UO-31 renal = tested on: UO-31 renal
HL-60(TB) leukemia = tested on: HL-60(TB) leukemia
SW-620 colon = tested on: SW-620 colon
EKVX NSCLC = tested on: EKVX NSCLC
DMS 273 small cell lung = tested on: DMS 273 small cell lung
OVCAR-8 ovarian = tested on: OVCAR-8 ovarian
A498 renal = tested on: A498 renal
CCRF-CEM leukemia = tested on: CCRF-CEM leukemia
COLO 205 colon = tested on: COLO 205 colon
SN12C renal = tested on: SN12C renal
XF 498 CNS = tested on: XF 498 CNS
SNB-19 CNS = tested on: SNB-19 CNS
LOX IMVI melanoma = tested on: LOX IMVI melanoma
K-562 leukemia = tested on: K-562 leukemia
ACHN renal = tested on: ACHN renal
SR leukemia = tested on: SR leukemia
SK-MEL-28 melanoma = tested on: SK-MEL-28 melanoma
NCI-H522 lung = tested on: NCI-H522 lung
NCI-H226 lung = tested on: NCI-H226 lung
NCI-H23 lung = tested on: NCI-H23 lung

Measured: TGI

Cc1c2ccccc2cc2ccc3oc([N+](=O)[O-])cc3c12
62.8 µM: HOP-18 NSCLC
> 100 µM: SF-295 CNS | U251 CNS | DLD-1 colon | HOP-92 NSCLC | DMS 114 small cell lung | HOP-62 NSCLC | OVCAR-4 ovarian | LXFL 529 NSCLC | OVCAR-5 ovarian | SK-MEL-2 melanoma | SF-539 CNS | HCT-15 colon | KM20L2 colon | SNB-75 CNS | SK-OV-3 ovarian | IGROV1 ovarian | A549 NSCLC | MALME-3M melanoma | M19-MEL melanoma | NCI-H460 lung | UACC-257 melanoma | SK-MEL-5 melanoma | HCC-2998 colon | M14 melanoma | HCT-116 colon | OVCAR-3 ovarian | TK-10 renal | KM12 colon | SNB-78 CNS | RXF 393 renal | SF-268 CNS | RPMI-8226 leukemia | UACC-62 melanoma | 786-0 renal | CAKI-1 renal | MOLT-4 leukemia | HT29 colon | UO-31 renal | HL-60(TB) leukemia | SW-620 colon | EKVX NSCLC | DMS 273 small cell lung | OVCAR-8 ovarian | A498 renal | CCRF-CEM leukemia | COLO 205 colon | SN12C renal | XF 498 CNS | SNB-19 CNS | LOX IMVI melanoma | K-562 leukemia | ACHN renal

c1ccc(N2N=C(c3ccco3)CC2c2ccco2)cc1 (stereo not drawn)
52.4 µM: MOLT-4 leukemia
> 100 µM: SF-295 CNS | U251 CNS | DMS 114 small cell lung | HOP-62 NSCLC | OVCAR-4 ovarian | LXFL 529 NSCLC | OVCAR-5 ovarian | SK-MEL-2 melanoma | SF-539 CNS | HCT-15 colon | KM20L2 colon | SNB-75 CNS | IGROV1 ovarian | A549 NSCLC | MALME-3M melanoma | M19-MEL melanoma | NCI-H460 lung | SK-MEL-5 melanoma | M14 melanoma | SR leukemia | HCT-116 colon | OVCAR-3 ovarian | TK-10 renal | KM12 colon | SNB-78 CNS | RXF 393 renal | SF-268 CNS | RPMI-8226 leukemia | UACC-62 melanoma | 786-0 renal | SK-MEL-28 melanoma | HT29 colon | UO-31 renal | SW-620 colon | EKVX NSCLC | DMS 273 small cell lung | OVCAR-8 ovarian | NCI-H522 lung | NCI-H226 lung | CCRF-CEM leukemia | NCI-H23 lung | COLO 205 colon | SN12C renal | XF 498 CNS | SNB-19 CNS | LOX IMVI melanoma | K-562 leukemia | ACHN renal
73.4 µM: HL-60(TB) leukemia
